Data: patent US20240409519A1, “HYDROGENATED QUINOXALINES” (OTSUKA PHARMACEUTICAL CO., LTD., priority 2021, published 2024)

Legend:
serotonin (5-HT) uptake = target: T1, serotonin (5-HT) uptake (Rattus norvegicus, UniProt P31652); experiment: Serotonin (5-HT) uptake inhibitory activity in rat brain synaptosome; format: biochemical; conditions: rat frontal cortex synaptosome, tritium-labeled 5-HT 8 nM; read-out: IC50 (nM), serotonin (5-HT) uptake inhibition
T1 construct: used as crude synaptosomal fraction; from tissue; host or cells: rat frontal cortex, crude synaptosomal fraction
T1 sequence (P31652 whole entry): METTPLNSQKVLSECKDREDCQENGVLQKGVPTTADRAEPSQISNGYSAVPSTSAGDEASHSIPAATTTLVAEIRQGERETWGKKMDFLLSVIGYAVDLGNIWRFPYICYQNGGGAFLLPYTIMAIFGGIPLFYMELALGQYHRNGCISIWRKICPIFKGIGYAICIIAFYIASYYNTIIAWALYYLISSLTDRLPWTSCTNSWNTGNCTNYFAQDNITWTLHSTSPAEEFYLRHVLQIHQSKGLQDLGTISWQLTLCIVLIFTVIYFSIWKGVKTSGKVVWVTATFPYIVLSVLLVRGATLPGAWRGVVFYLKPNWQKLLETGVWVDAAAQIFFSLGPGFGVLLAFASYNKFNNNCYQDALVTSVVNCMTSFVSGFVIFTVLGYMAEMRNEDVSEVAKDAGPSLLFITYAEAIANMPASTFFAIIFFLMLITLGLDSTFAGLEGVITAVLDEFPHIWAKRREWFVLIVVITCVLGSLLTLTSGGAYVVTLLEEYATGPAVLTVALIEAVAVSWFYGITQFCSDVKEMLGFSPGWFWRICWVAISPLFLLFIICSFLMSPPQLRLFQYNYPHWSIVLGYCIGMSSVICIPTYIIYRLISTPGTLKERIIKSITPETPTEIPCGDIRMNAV
Method: Male Wistar rats were decapitated, each brain was removed, and the frontal cortex was cut out. […] The homogenate was centrifuged at 1000 g at 4° C. for 10 minutes, and the supernatant was further centrifuged at 20000 g at 4° C. for 20 minutes. The pellet was suspended in an incubation buffer (20 mM Hepes buffer (pH 7.4) containing 10 mM glucose, 145 mM sodium chloride, 4.5 mM potassium chloride, 1.2 mM magnesium chloride and 1.5 mM calcium chloride) and used as crude synaptosomal fraction.
Each well of a 96-well round-bottom plate was used for the uptake reaction in a total volume of 200 μL solution containing purgurin (final concentration 10 μM) and ascorbic acid (final concentration 0.2 mg/mL). In other words, solvent, unlabeled 5-HT or step-diluted test compound was added to each well, and one-tenth of the final volume of the synaptosomal fraction was added to each well, followed by pre-incubation at 37° C. for 10 minutes, and then tritium-labeled 5-HT solution (final concentration 8 nM) was added and the uptake reaction was initiated at 37° C. After 10 minutes, the uptake reaction was terminated by suction filtration onto a 96-well glass fiber filter plate. The filters were rinsed with cold physi-ological saline solution, dried thoroughly, and micro scintillation 0 (Perkin-Elmer) was added thereto. Then, the residual radioactivity on the filters was measured.
The uptake value when only solvent was added was set as 100%, the uptake value when unlabeled 5-HT (final concentration 10 μM) was added as 0% (nonspecific uptake value), and the 50% inhibitory concentration was calculated from the concentration of the test compound and its inhibitory activity.

CYP2C9 = target: T2, CYP2C9 (Homo sapiens, UniProt P11712); experiment: CYP inhibition test (1): inhibition rate (%) at one concentration, CYP2C9; format: in vitro ADME; conditions: human liver microsomes, pH 7.4, probe diclofenac (0.005 mmol/L); test compound 0.01 mmol/L, human liver microsome 0.1 mg/mL, substrate diclofenac, 37° C. 10 minutes; read-out: inhibition rate (%) 2C9
T2 construct: a human liver microsome solution containing three CYP-specific substrates; from tissue; host or cells: human liver microsomes
T2 sequence (P11712 whole entry): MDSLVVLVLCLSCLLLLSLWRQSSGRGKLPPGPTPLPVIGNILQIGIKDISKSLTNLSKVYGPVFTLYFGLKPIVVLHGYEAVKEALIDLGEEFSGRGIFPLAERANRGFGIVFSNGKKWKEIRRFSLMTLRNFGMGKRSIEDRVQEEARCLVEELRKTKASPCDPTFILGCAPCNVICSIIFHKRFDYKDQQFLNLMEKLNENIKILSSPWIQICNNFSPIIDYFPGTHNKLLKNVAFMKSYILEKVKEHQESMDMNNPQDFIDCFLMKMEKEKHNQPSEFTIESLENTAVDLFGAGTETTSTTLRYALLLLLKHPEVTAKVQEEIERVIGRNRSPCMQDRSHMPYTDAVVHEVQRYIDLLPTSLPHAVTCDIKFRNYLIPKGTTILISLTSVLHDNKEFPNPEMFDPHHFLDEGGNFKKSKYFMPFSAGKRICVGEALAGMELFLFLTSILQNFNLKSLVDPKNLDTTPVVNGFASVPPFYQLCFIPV
Method: A metabolic reaction was initiated by adding and mixing a test compound solution (final concentration 0.01 mmol/L) and a NADH/NADPH solution (final concentration 1 mmol/L) to a human liver microsome solution containing three CYP-specific substrates (final concentration 100 mmol/L potassium phosphate buffer solution (pH 7.4), 5 mmol/L magnesium chloride, 0.1 mg/mL human liver microsome, 0.005 mmol/L diclofenac (for CYP2C9), 0.01 mmol/L bufuralol (for […]), 0.005 mmol/L midazolam (for CYP3A4)). As an internal standard solution, a solution of each of stable isotopes of the metabolites (50 ng/mL [13C6] hydroxy diclofenac, 5 ng/mL [2H9] hydroxy bufuralol, and 5 ng/mL [13C6] hydroxy midazolam (all stable isotopes)) in methanol was prepared and used as a quenching solution.
Specifically, a metabolic reaction was initiated by adding and mixing 2 μL of a solution of a test compound in acetonitrile (or acetonitrile as a control) to 178 μL of a human liver microsome solution in ice water, followed by preincubation at 37° C. for 1 minute, and then adding 20 μL of a NADH/NADPH solution thereto. After incubation at 37° C. for 10 minutes, 50 μL of the reaction mixture was taken, and then it was added and mixed to 500 μL of a quenching solution to quech the reaction. The mixture was centrifuged (6130 g, 4° C., 10 minutes) and the supernatant was used as a sample for LC-MS/MS.
Peak area ratio ([peak area of metabolite]/[peak area of corresponding stable isotope]) was calculated for a metabolite and a stable isotope of the metabolite as measurement object. By comparing the peak area ratio of each test compound solution with that of the control, the inhibition rate (%) of each CYP species for each test compound was calculated from (1-[peak area ratio of each test compound solution]/[peak area ratio of control])×100.

[1] = Protein binding rate test (human serum, equilibrium dialysis); format: in vitro ADME; conditions: test compound 0.001 mmol/L, equilibrium dialysis 37° C. 6 hours
Method: A serum sample was prepared by adding a test compound solution to a human serum (final concentration of the test compound: 0.001 mmol/L). The serum sample and Dulbecco's Phosphate-Buffered Saline (D-PBS(−)) were added to the wells separated by a dialysis membrane to start the reaction. A solution of the internal standard in methanol was prepared and used as a quenching solution.
Specifically, the dialysis membrane (cut-off molecular weight 12000-14000) was pre-conditioned by immersing it in distilled water, followed by 20% ethanol. Then, the membrane was washed with D-PBS(−) and set in an equilibrium dialysis kit. Then, 150 μL of D-PBS(−) was added to one part of each well divided by the dialysis membrane, and 150 μL of serum sample was added to the other part. After sealing all wells and incubation at 37° C. for 6 hours, 30 μL from the serum side and 90 μL from the PBS side of each well were collected and mixed with 90 μL of D-PBS(−) or 30 μL of blank serum and 480 μL of a quenching solution to quench the reaction.
The mixture was centrifuged (6130 g, 4° C., 10 minutes) and the supernatant was used as a sample for LC-MS/MS.
Peak area ratio ([peak area of test compound]/[peak area of internal standard]) was calculated for the test compound and the internal standard. By comparing the peak area ratio of the PBS side for each test compound with that of the serum side, the protein binding rate (%) of each test compound was calculated from (1-[peak area ratio of PBS side]/[peak area ratio of serum side])×100.

Row | Structure (SMILES) | IC50 (serotonin (5-HT) uptake) | inhibition at 10 min, 0.01 mmol/L (CYP2C9) | fraction unbound at 6 h, 0.001 mmol/L [1]
1 | OCCOc1c(F)cc(N2CC3(CCC3)N[C@H]3CCCC[C@@H]32)cc1Cl [Example 6] | 6.1 nM | -6.4% | 0.401
2 | OCCOc1ccc(N2CC3(CCC3)N[C@H]3CCCC[C@@H]32)cc1 [Example 8] | 10 nM | 8.1% | 0.686
3 | COc1cc(N2CC3(CCC3)N[C@H]3CCCC[C@@H]32)ccc1OCCO [Example 11] | 39.6 nM | 7.5% | 0.767
4 | Cc1cc(N2CC3(CCC3)N[C@H]3CCCC[C@@H]32)cc(F)c1OCCO [Example 14] | 5.8 nM | 13.6% | 0.615
5 | C[C@@H]1CN(c2cc(F)c(OCCO)c(Cl)c2)[C@H]2CCCC[C@@H]2N1 [Example 17, 2-(2-chloro-6-fluoro-4-((3R,4aS,8aS)-3-methyloctahydroquinoxalin-1(2H)-yl)phenoxy)ethan-1-ol 1/2fumarate] | 7.3 nM |  | 0.727
6 | C[C@H]1CN(c2cc(F)c(OCCO)c(Cl)c2)[C@H]2CCCC[C@H]2N1 [Example 18] | 73.1 nM |  | 0.741
7 | C[C@@H]1CN(c2ccc(OC(F)(F)CO)c(Cl)c2)[C@H]2CCCC[C@@H]2N1 [Example 19] | 62.7 nM | 5.8% | 0.471
8 | CC1(C)CN(c2ccc(OC(F)(F)CO)cc2)[C@H]2CCCC[C@@H]2N1 [Example 20, 2-(4-((4aS,8aS)-3,3-dimethyloctahydroquinoxalin-1(2H)-yl)phenoxy)-2,2-difluoroethan-1-ol] | 4.7 nM |  | 0.569
9 | CC1(C)CN(c2ccc(OC(F)(F)CO)cc2)[C@@H]2CCCC[C@H]2N1 [Example 21] | 89.9 nM |  | 0.585
10 | COc1cc(N2CC(C)(C)N[C@H]3CCCC[C@@H]32)ccc1OC(F)(F)CO [Example 26] | 18.1 nM |  | 0.58
11 | CC1(C)CN(c2ccc(OCCO)c(Cl)c2)[C@H]2CCCC[C@@H]2N1 [Example 27, 2-(2-chloro-4-((4aS,8aS)-3,3-dimethyloctahydroquinoxalin-1(2H)-yl)phenoxy)ethan-1-ol] | 7.6 nM |  | 0.585
12 | CC1(C)CN(c2ccc(OCCO)c(Cl)c2)[C@@H]2CCCC[C@H]2N1 [Example 28] | 55.1 nM |  | 0.616
13 | Cc1cc(N2CC(C)(C)N[C@H]3CCCC[C@@H]32)ccc1OC(F)(F)CO [Example 31] | 26.6 nM |  | 0.497
14 | Cc1cc(N2CC(C)(C)N[C@@H]3CCCC[C@H]32)ccc1OC(F)(F)CO [Example 32] | 98.3 nM |  | 0.482
15 | CC1(C)CN(c2cc(F)c(OCCO)c(F)c2)[C@H]2CCCC[C@@H]2N1 [Example 34, 2-(4-((4aS,8aS)-3,3-dimethyloctahydroquinoxalin-1(2H)-yl)-2,6-difluorophenoxy)ethan-1-ol] | 8.9 nM |  | 0.796
16 | CC1(C)CN(c2cc(F)c(OCCO)c(F)c2)[C@@H]2CCCC[C@H]2N1 [Example 35] | 71 nM |  | 0.776
17 | CC1(C)CN(c2cc(F)c(OCCO)c(F)c2)[C@H]2CCCC[C@H]2N1 [Example 36] | 60.1 nM |  | 0.638
18 | CN1[C@H]2CCCC[C@@H]2N(c2ccc(OC(F)(F)CO)cc2)CC1(C)C [Example 37, 2,2-difluoro-2-(4-((4aS,8aS)-3,3,4-trimethyloctahydroquinoxalin-1(2H)-yl)phenoxy)ethan-1-ol] | 87.4 nM |  | 0.529
19 | CC1(C)CN(c2ccc(OCCO)c(Cl)c2)[C@H]2CCCC[C@H]2N1 [Example 44, 2-(2-chloro-4-((4aR,8aS)-3,3-dimethyloctahydroquinoxalin-1(2H)-yl)phenoxy)ethan-1-ol 1/2fumarate] | 15.3 nM | -11.4% | 0.566
20 | Cc1cc(N2CC(C)(C)N[C@@H]3CCCC[C@@H]32)ccc1OC(F)(F)CO [Example 48] | 57.4 nM | -0.7% | 0.413
21 | CC1(C)CN(c2ccc(OCCO)c3occc23)[C@@H]2CCCC[C@@H]2N1 [Example 50] | 7.7 nM | -7.6% | 0.551
22 | CC1(C)CN(c2ccc(OCCO)c3occc23)[C@H]2CCCC[C@H]2N1 [Example 51] | 17 nM | -8.3% | 0.553
23 | CC1(C)CN(c2ccc(OCCO)c(F)c2)[C@H]2CCCC[C@H]2N1 [Example 52] | 55 nM | 9.2% | 0.73
24 | Cc1c(N2CC(C)(C)N[C@@H]3CCCC[C@@H]32)ccc(OC(F)(F)CO)c1F [Example 57] | 30.3 nM | 9.3% | 0.294
25 | Cc1cc(N2CC(C)(C)N[C@@H]3CCCC[C@@H]32)cc(F)c1OC(F)(F)CO [Example 58] | 22.9 nM | 2.8% | 0.358
26 | CC1(C)CN(c2ccc(OC(F)(F)CO)cc2F)[C@H]2CCCC[C@H]2N1 [Example 61, 2-(4-((4aR,8aS)-3,3-dimethyloctahydroquinoxalin-1(2H)-yl)-3-fluorophenoxy)-2,2-difluoroethan-1-ol 1/2fumarate] | 9 nM | 6.8% | 0.337
27 | CC1(C)CN(c2cc(Br)c(OCCO)cc2F)[C@H]2CCCC[C@H]2N1 [Example 62] | 8.6 nM | 4.6% | 0.404
28 | CC1(C)CN(c2ccc(OCCO)c(Br)c2F)[C@H]2CCCC[C@H]2N1 [Example 63] | 5.1 nM | 1.1% | 0.261
29 | CC1(C)CN(c2ccc(OCCO)cc2Cl)[C@H]2CCCC[C@H]2N1 [Example 64, 2-(3-chloro-4-((4aR,8aS)-3,3-dimethyloctahydroquinoxalin-1(2H)-yl)phenoxy)ethan-1-ol 1/2fumarate] | 8.8 nM | 10.2% | 0.499
